Molecules are shown by their SMILES.

One assay relates to MCF7. The experiment in a line: 72 h MTT cytotoxicity assay MCF7. The conditions noted are these: Homo sapiens; MCF7, 72 hrs. Type of assay: cell-based. An excerpt:
(§1) MIT cytotoxicity assay. The compounds of the invention were subjected to a standard cellular proliferation assay using human cell lines. HeLa cells (Human cervix adenocarcinoma cell line, ATCC NO, CCL-2); A549 cells (Human lung carcinoma cells line, ATCC NO, CCL-185); U2OS cells (Human osteosarcoma cell line, ATCC NO, HTB-96); Eca-109 cells (Human esophageal carcinoma cell line); HepG2 (Human hepatocellular liver carcinoma cell line, ATCC NO, HB-8065); K562 cells (Human chronic myelogenous leukemia cell line, ATCC NO, CCL-243); SK-MEL-28 (Human malignant melanoma cell line, ATCC NO, HTB-72); Molt-4 (Human acute lymphoblastic leukemia cell line, ATCC NO, CRL-1582); H460 (Human large cell lung cancer cell line, ATCC NO, HTB-177); MDA-MB-231 (Human breast adenocarcinoma cell line, ATCC NO, HTB-26); MCF7 (Human breast adenocarcinoma cell line, ATCC NO, HTB-22); ACHN (Human renal cell adenocarcinoma cell line, ATCC NO, CRL-1611); PC-3M (Human prostate adenocarcinoma cell line, ATCC NO CRL-1435); HL60 (Human acute promyelocytic leukemia cell line, ATCC NO, CCL-240); THP-1 (Human acute monocytic leukemia, ATCC NO, TIB-202); Jurkat (Human acute T cell leukemia cell line, ATCC NO, CRL-2063); HCT-116 (Human colorectal carcinoma cell line, ATCC NO, CCL-247); HT-29 (Human colorectal adenocarcinoma cell line, ATCC NO, HTB-38™); WI-38 (Human normal lung cell line, ATCC NO, CCL-75); MRC-5 (Human normal lung cell line, ATCC NO, CCL-171).
(§2) HepG2, MDA-MB-231, WI-38 and MRC-5 cells were obtained from Shanghai Institute of Cell Biology, Chinese Academy of Sciences (Shanghai 200031, China). A549, HeLa, K562, MCF7, ACHN, H460, U2OS, Eca-109, MCF7, HL60, THP-1, Jurkat, HCT-116, HT-29, PC-3M, SK-MEL-28, Molt-4, H460 and […] cells were purchased from ATCC (American Type Culture Collection, USA).
(§3) Standard 72 h MTT (thiazolye blue; 3-[4,5-dimethylthiazol-2-yl]-2,5-diphenyltetrazolium bromide) assays were performed. Briefly, the cell lines used in this study were recovered and cultured according to the conditions recommended. 4000 cells per well were seeded into 96-well plates according to doubling time and incubated overnight at 37° C. Compounds were prepared in DMSO and a ½ dilution series in 100 μl cell culture media, added to cells (in duplicates) with the final DMSO concentration of 0.025%, and incubated for 72 hrs at 37° C. MTT solution (5 mg/ml) was added at 10 μl per well and incubated in the dark at 37° C. for 4 hr. Culture medium and MTT solution was removed. MTT dye was solubilised with 100 μl per well of DMSO with agitation. Absorbance was read at 562 nm and data analyzed using Sigmoid curve-fitting software Origin 6.0 (MicroCal, LLC, USA) to determine IC50 value.
On the technique in general: Formazan colour is commonly taken as a measure of viable cells.

The next assay addresses T1, Aurora A (Homo sapiens, UniProt O14965).
T1 construct: purchased Invitrogen PV3612
T1 sequence (O14965 1-403): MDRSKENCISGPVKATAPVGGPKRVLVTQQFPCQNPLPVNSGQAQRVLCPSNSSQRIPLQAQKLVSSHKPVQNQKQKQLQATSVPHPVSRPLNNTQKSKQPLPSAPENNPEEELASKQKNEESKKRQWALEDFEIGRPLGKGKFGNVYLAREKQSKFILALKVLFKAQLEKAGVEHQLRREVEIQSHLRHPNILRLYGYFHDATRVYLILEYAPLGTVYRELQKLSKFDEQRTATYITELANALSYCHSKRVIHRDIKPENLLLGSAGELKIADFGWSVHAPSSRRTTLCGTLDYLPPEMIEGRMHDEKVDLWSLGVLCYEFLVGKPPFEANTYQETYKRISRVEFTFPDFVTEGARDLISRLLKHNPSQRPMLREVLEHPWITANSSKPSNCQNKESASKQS
The experiment in a line: Z'-LYTE kinase assay Aurora A. Type of assay: biochemical. The conditions noted are these: read-out: Kinase inhibition, IC50 Aurora A. The procedure:
(§4) Kinase assays. The compounds from the example above were tested for their ability to inhibit kinases. Recombinant human CDK2/cyclinA (PV3267), CDK1/cyclinB (PV3292), CDK5/p35 (PV3000) and Aurora A (PV3612) were purchased from Invitrogen (Carlsbad, Calif., USA). Kinase dosage and Z′-LYTE™ substrate for each kinase assay is as follows: CDK2/cyclinA-8 ng/reaction, Ser/Thr 12 Peptide; CDK1/cyclinB-0.8 ng/reaction, Ser/Thr 12 Peptide, CDK5/p35-0.8 ng/reaction, Ser/Thr 12 Peptide, and Aurora A-16 ng/reaction, Ser/Thr 1 Peptide. All enzymatic assays were performed using Z′-LYTE™ Kinase Assay Kits and were carried out following protocols provided by Invitrogen. To prepare stock solutions, compounds were dissolved at 10 mM in 100% DMSO and stored at 4° C. in amber glass vials. Enzyme reactions were initiated by adding recombinant enzyme and Z′-LYTE™ Ser/Thr peptide substrate and ATP mixture to 384-well plates containing diluted test compounds. Kinase and corresponding peptide substrate were incubated for 1 hr at room temperature in the presence of varying amounts of test compound with reaction buffer (20 μM ATP, […] [pH 7.5], 5 mM MgCl2, 0.5 mM EGTA, 0.005% Brij-35). Development buffer was added and incubated for another one hour at room temperature. Reactions were terminated by addition of stop buffer, and fluorescence emission intensity ratio 445 nm/520 nm (excited at 400 nm) was quantified by VICTOR-3 Multilabel Reader (Perkin-Elmer, Waltham, Mass., USA). Phosphorylation was calculated from the emission ratio. IC50 was determined using Sigmoid curve-fitting software Origin 6.0 (MicroCal, LLC, Northampton, Mass., USA).

Another assay concerns HepG2. The experiment in a line: 72 h MTT cytotoxicity assay HepG2. Type of assay: cell-based. The conditions noted are these: Homo sapiens; HepG2, 72 hrs.
Excerpt: as §1, §2, §3

The next assay addresses T2, CDK2/cyclinA (Homo sapiens, UniProt P24941).
T2 construct: purchased Invitrogen PV3267
In words: Z'-LYTE kinase assay CDK2/cyclinA. It is filed as biochemical. The conditions noted are these: read-out: Kinase inhibition, IC50 CDK2A. The protocol: as §4

In the next assay the test system is HeLa cells. The experiment in a line: 72 h MTT cytotoxicity assay HeLa. Type of assay: cell-based. The note with it: Homo sapiens.
Excerpt: as §1, §2, §3

A further assay deals with A549 cells. In words: 72 h MTT cytotoxicity assay A549. The conditions noted are these: Homo sapiens; A549, 72 hrs. It is filed as cell-based.
Excerpt: as §1, §2, §3

The subject of a further assay is SK-MEL-28-luc. In words: 72 h MTT cytotoxicity assay SK-MEL-28-luc. It is filed as cell-based. The note with it: Homo sapiens.
Excerpt: as §1, §2, §3

The next assay relates to Eca-109 cells. The experiment in a line: 72 h MTT cytotoxicity assay Eca-109. It is filed as cell-based. The note with it: Homo sapiens; Eca-109, 72 hrs.
Excerpt: as §1, §2, §3

The next assay concerns U2OS cells. In words: 72 h MTT cytotoxicity assay U2OS. The note with it: Homo sapiens. It is filed as cell-based.
Excerpt: as §1, §2, §3

A further assay concerns the target T3, CDK5/p35 (Homo sapiens, UniProt Q00535).
T3 construct: purchased Invitrogen PV3000
In words: Z'-LYTE kinase assay CDK5/p35. Type of assay: biochemical. The conditions noted are these: read-out: Kinase inhibition, IC50 CDK5/p35. The procedure:
as §4

The test system of the next assay is MDA-MB-231-luc. The experiment in a line: 72 h MTT cell viability MDA-MB-231-luc. The note with it: Homo sapiens. Type of assay: cell-based.
Excerpt: as §1, §2, §3

A further assay addresses T4, CDK1/cyclinB (Homo sapiens, UniProt P06493).
T4 construct: purchased Invitrogen PV3292
The experiment in a line: Z'-LYTE kinase assay CDK1/cyclinB. It is filed as biochemical. The note with it: read-out: Kinase inhibition, IC50 CDK1B. The procedure: as §4

The test system of another assay is ACHN-luc. In words: 72 h MTT cell viability ACHN-luc. Type of assay: cell-based. The note with it: Homo sapiens.
Excerpt: as §1, §2, §3

The subject of the next assay is H460-luc. In words: 72 h MTT cytotoxicity assay H460-luc. It is filed as cell-based. The conditions noted are these: Homo sapiens, NCI-H460-Luc; H460-luc, 72 hrs; read-out: Cytotoxicity, MTT 72 hrs, IC50 H460-luc.
Excerpt: as §1, §2, §3

The next assay has as its system WI-38. In words: 72 h MTT cell viability WI-38 (normal lung). Type of assay: cell-based. The note with it: Homo sapiens; WI-38, normal lung cell line.
Excerpt: as §1, §2, §3

Another assay deals with K562 cells. The experiment in a line: 72 h MTT cytotoxicity assay K562. Type of assay: cell-based. The conditions noted are these: Homo sapiens; K562, 72 hrs.
Excerpt: as §1, §2, §3

The next assay addresses Aurora B (Homo sapiens, UniProt Q96GD4). The experiment in a line: Kinase assay Aurora B (Table I). It is filed as biochemical. The note with it: read-out: Kinase inhibition, IC50 Aurora B. The protocol: [The source words this procedure for another target and reports this target under the same test.] as §4
Another assay relates to Molt-4-luc. In words: 72 h MTT cytotoxicity assay Molt-4-luc. Type of assay: cell-based. The note with it: Homo sapiens.
Excerpt: as §1, §2, §3

Another assay has as its target CDK9T1 (Homo sapiens, UniProt P50750). In words: Kinase assay CDK9T1 (Table I). It is filed as biochemical. The conditions noted are these: read-out: Kinase inhibition, IC50 CDK9T1. The procedure:
[The source words this procedure for another target and reports this target under the same test.] as §4

Chain of Aurora B (Q96GD4 whole entry): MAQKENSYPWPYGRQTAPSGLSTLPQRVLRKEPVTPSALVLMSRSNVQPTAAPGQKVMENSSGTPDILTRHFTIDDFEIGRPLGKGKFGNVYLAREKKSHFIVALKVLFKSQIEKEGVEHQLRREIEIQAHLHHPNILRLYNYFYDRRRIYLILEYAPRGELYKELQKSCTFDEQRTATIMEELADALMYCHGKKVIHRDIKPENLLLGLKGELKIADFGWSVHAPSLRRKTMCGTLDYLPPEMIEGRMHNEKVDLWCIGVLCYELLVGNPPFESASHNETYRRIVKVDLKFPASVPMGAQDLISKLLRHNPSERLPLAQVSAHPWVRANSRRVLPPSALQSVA
T4 sequence (P06493 whole entry): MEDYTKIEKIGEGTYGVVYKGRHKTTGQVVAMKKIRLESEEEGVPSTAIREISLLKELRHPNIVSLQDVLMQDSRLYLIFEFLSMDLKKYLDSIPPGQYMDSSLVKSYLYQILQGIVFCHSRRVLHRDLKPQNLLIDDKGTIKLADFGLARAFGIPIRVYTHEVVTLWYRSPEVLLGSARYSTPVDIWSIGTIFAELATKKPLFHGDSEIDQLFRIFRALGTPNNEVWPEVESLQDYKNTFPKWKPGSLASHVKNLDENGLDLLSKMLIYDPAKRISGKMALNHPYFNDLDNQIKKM
T4 sequence (P14635 whole entry partner): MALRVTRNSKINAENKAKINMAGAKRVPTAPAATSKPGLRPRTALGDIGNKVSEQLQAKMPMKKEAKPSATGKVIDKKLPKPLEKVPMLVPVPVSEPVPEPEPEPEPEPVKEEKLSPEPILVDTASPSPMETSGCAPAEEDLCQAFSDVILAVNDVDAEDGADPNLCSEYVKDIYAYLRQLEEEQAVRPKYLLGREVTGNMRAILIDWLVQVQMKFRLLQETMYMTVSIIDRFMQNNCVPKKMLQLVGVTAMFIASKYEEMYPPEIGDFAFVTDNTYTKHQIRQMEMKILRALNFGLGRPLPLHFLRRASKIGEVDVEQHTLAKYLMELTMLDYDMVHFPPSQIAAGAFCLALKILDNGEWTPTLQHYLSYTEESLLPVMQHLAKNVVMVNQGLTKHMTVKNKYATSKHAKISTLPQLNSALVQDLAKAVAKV
T3 sequence (Q00535 whole entry): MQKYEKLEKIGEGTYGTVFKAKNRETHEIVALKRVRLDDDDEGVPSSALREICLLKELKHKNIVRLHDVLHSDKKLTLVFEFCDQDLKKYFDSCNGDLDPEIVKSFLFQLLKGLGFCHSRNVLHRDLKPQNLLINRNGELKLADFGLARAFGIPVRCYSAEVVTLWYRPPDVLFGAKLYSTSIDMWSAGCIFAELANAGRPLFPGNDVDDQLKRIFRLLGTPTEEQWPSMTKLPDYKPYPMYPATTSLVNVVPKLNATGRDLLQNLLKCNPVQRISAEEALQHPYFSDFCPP
T3 sequence (Q15078 whole entry partner): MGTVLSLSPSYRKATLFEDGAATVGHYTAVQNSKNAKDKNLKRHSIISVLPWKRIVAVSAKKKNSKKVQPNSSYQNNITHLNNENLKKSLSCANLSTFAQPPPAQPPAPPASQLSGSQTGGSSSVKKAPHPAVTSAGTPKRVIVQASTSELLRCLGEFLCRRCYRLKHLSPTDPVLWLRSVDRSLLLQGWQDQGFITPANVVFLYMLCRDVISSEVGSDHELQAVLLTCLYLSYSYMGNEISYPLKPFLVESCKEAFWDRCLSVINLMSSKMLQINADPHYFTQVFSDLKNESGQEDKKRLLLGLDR
Chain of CDK9T1 (P50750 whole entry): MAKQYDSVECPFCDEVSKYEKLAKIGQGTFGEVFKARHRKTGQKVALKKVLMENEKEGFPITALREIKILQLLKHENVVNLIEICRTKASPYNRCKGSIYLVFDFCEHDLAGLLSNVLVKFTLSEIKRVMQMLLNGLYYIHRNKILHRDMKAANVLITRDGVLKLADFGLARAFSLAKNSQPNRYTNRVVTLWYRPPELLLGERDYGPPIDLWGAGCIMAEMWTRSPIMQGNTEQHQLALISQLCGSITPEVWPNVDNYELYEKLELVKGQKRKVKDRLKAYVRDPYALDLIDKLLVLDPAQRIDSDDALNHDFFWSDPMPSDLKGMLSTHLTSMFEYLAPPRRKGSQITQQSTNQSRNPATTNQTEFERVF
Chain of CDK9T1 (O60563 whole entry partner): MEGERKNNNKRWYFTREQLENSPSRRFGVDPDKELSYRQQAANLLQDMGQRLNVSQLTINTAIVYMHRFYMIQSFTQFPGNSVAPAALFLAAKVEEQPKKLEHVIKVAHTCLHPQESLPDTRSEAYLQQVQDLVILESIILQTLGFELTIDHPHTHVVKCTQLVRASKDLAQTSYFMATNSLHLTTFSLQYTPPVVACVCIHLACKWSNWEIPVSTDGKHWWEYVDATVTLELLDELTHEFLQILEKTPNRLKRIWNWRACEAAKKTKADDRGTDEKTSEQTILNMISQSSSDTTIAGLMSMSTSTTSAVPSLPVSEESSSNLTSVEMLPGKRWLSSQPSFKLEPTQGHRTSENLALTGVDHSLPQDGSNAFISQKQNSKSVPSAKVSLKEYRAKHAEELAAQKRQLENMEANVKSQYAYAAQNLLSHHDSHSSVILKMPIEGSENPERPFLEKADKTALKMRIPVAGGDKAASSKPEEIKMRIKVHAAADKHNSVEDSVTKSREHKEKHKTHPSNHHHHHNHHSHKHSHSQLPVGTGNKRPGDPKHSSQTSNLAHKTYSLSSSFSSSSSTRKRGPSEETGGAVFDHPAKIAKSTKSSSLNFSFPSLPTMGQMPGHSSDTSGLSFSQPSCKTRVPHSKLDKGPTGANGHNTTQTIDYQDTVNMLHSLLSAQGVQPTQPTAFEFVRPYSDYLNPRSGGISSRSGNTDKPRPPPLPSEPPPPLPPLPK

For `Cn1cc(-c2ccnc(Nc3cccc(O)c3)n2)c2ccccc21` [Compound 1, 3-(4-(1-Methyl-1H-indol-3-yl)pyrimidin-2-ylamino)phenol], the IC50 amounted to 10.1 µM with MCF7; 0.28 µM on Aurora A; 4.55 µM in the assay with HepG2; 0.543 µM on CDK2/cyclinA; 4.7 µM in the assay with HeLa cells; 6.03 µM in the assay on A549 cells. The IC50 in the assay with SK-MEL-28-luc amounted to 6.47 µM; with Eca-109 cells, 14.2 µM; in the assay with U2OS cells, 5.99 µM; at CDK5/p35 it was 2.61 µM; in the assay with MDA-MB-231-luc, 6.33 µM; at CDK1/cyclinB, 2.5 µM. The IC50 with ACHN-luc was 9.82 µM; in the assay on H460-luc, 6.19 µM; in the assay with WI-38, over 10 µM; with K562 cells it was 4.78 µM; at Aurora B it was 0.34 µM; in the assay with Molt-4-luc it was 6.4 µM.

Regarding `Cn1cc(-c2ccnc(Nc3ccc(O)cc3)n2)c2ccccc21` [Compound 2, 4-(4-(1-Methyl-1H-indol-3-yl)pyrimidin-2-ylamino)phenol], the IC50 in the assay with MCF7 is 9.56 µM; on Aurora A, 0.15 µM; in the assay with HepG2, 5.97 µM; at CDK2/cyclinA it was 0.305 µM; in the assay on HeLa cells it was 4.93 µM; with A549 cells, 8.29 µM. The IC50 was determined as 6.37 µM in the assay on SK-MEL-28-luc; 14.5 µM in the assay with Eca-109 cells; 0.043 µM on CDK9T1; 7.33 µM with U2OS cells; 0.95 µM at CDK5/p35; 6.16 µM in the assay with MDA-MB-231-luc. The IC50 on CDK1/cyclinB is 0.742 µM; in the assay on ACHN-luc it was 23.4 µM; with H460-luc, 6.39 µM; in the assay on WI-38, over 10 µM; in the assay on K562 cells it was 6.17 µM; on Aurora B, 0.2 µM. This compound also registered an IC50 in the assay with Molt-4-luc of 6.3 µM.

For the compound `CCCn1cc(-c2ccnc(Nc3cccc([N+](=O)[O-])c3)n2)c2cccnc21` [Compound 17, N-(3-Nitrophenyl)-4-(1-propyl-1H-pyrrolo[2,3-b]pyridin-3-yl)pyrimidin-2-amine], the IC50 in the assay with MCF7 turned out to be 4.93 µM; at Aurora A, 1.16 µM; in the assay on HepG2, 1.19 µM; on CDK2/cyclinA it was 0.463 µM; with HeLa cells, 4.22 µM; in the assay on A549 cells it was 2.19 µM. Besides, the IC50 is 5.48 µM with SK-MEL-28-luc; 6.06 µM in the assay with Eca-109 cells; 0.16 µM on CDK9T1; 4.91 µM in the assay on U2OS cells; over 10 µM on CDK5/p35; 2.63 µM with MDA-MB-231-luc. Moreover, the IC50 at CDK1/cyclinB was 7.64 µM; in the assay with ACHN-luc, 2.45 µM; with H460-luc, 2.49 µM; in the assay on WI-38 it was over 10 µM; in the assay on K562 cells it was 2.31 µM; on Aurora B, over 10 µM. Also, the IC50 with Molt-4-luc came to 6.29 µM.

As to `CCn1cc(-c2ccnc(Nc3cccc(C(N)=O)c3)n2)c2cccnc21` [Compound 19, 3-(4-(1-Ethyl-1H-pyrrolo[2,3-b]pyridin-3-yl)pyrimidin-2-ylamino)benzamide], the IC50 came to 3.96 µM in the assay with MCF7; 0.29 µM on Aurora A; 1.41 µM in the assay on HepG2; 0.272 µM at CDK2/cyclinA; 4.33 µM in the assay on HeLa cells; 3.43 µM with A549 cells. Moreover, the IC50 with SK-MEL-28-luc is over 10 µM; with Eca-109 cells it was over 10 µM; at CDK9T1, 0.11 µM; with U2OS cells, 9.54 µM; on CDK5/p35 it was 3.18 µM; in the assay on MDA-MB-231-luc, 8.51 µM. For the same compound, the IC50 is 1.34 µM on CDK1/cyclinB; 3.46 µM in the assay on ACHN-luc; 3.63 µM with H460-luc; over 10 µM in the assay on WI-38; 15.4 µM in the assay on K562 cells; 1.44 µM on Aurora B. In the assay with Molt-4-luc, this compound returned an IC50 of 6.66 µM.

The record behind these values is patent publication US8309550B2, “Kinase inhibitors and their use as pharmaceutical agents” (Shanghai Genomics, Inc., priority 2011, dated 2012).
